Experimental data as given in patent US9873699B1, “Anti-cancer agents” (KING SAUD UNIVERSITY, priority 2017, dated 2018).

System: FaDu hypopharyngeal tumor cells
Test: Cytotoxicity assay (MTT)
Type: cell-based
Conditions: 48 h
Protocol: The synthesized series of compounds 4a-m stock solution were prepared by dissolved in DMSO (Sigma-Aldrich, St. Louis, Mo., USA) or dH2O. The stock solutions were diluted with cell culture medium and used as a working solution. Different concentration of working solution was exposed to 5 to 7×10^3 cells seeded 96 well plates after 24 h incubation. DMSO/dH2O was used as the solvent control. Nuclear morphological changes were monitored and photographed following treatment of synthesized compounds for 48 h using inverted microscope (Carl Zeiss, Jena, Germany). After incubation, plates were centrifuged and washed with cell culture medium. Subsequently, 20 μL of MTT solution [5 mg/mL in phosphate-buffered saline (PBS)] was added to each well, and the plates were protected from light and kept in CO2 incubator at 37° C. for 4 h. The purple color formazan product was formed and dissolved in 100 μL of DMSO. The absorbance was monitored at 570 nm (measurement) and 630 nm (reference) using a 96 well plate reader (Bio-Rad, Hercules, Calif., USA). Data were collected for four replicates each and used to calculate the median effect dose or concentration, i.e., IC50 using the Calcusyn software.
The cytotoxicity of synthesized compounds 4(a-m) on FaDu hypopharyngeal tumor cells was assessed for 48 h, in comparison with the commercial anti-cancer drug bleomycin under identical conditions (FIGS. 6&7). […] The percentage of apoptotic cells is indicated by the histograms and the data shown are the means from triplicates. Vertical bars represent standard error of the mean.

Molecule	cytotoxicity against cancer cells (in words)
5′-benzyl-4′-(2,4-dichloropheynyl)-5-spiro[3,2′]oxindolopyrrolidino-4′-(2,4-dichlorophenyl-1″-styryl-5-benzylidene-spiro[3′.3″]piperidi-4″-one [Compound 4e]	good cytotoxicity
5′-benzyl-4′-(4-bromopheynyl)-5-spiro[3,2′]oxindolopyrrolidino-4′-(4-bromophenyl-1″-styryl-5-benzylidene-spiro[3′.3″]piperidi-4″-one [Compound 4c]	good cytotoxicity
5′-benzyl-5-spiro[3,2′]oxindolopyrrolidino-4′-(methylphenyl)-1″-styryl-5-benzylidene-spiro[3′.3″]piperidi-4″-one [Compound 4a]	excellent cytotoxic property
O=C1Nc2ccccc2C12NC(Cc1ccccc1)C(c1ccccc1Cl)C21CN(C=Cc2ccccc2)CC(=Cc2ccccc2Cl)C1=O (stereo not drawn) [Compound 4d]	good cytotoxicity
Cc1ccccc1C=C1CN(C=Cc2ccccc2)CC2(C1=O)C(c1ccccc1C)C(Cc1ccccc1)NC21C(=O)Nc2ccccc21 (stereo not drawn) [Compound 4g, 5′-benzyl-4′-(2-tolyl)-5-spiro[3,2′]oxindolopyrrolidino-4′-(2-methylphenyl)-1″-styryl-5-benzylidene-spiro[3′.3″]piperidi-4″-one]	excellent cytotoxic property
Cc1cccc(C=C2CN(C=Cc3ccccc3)CC3(C2=O)C(c2cccc(C)c2)C(Cc2ccccc2)NC32C(=O)Nc3ccccc32)c1 (stereo not drawn) [Compound 4h, 5′-benzyl-4′-(3-tolyl)-5-spiro[3,2′]oxindolopyrrolidino-4′-(3-methylphenyl)-1″-styryl-5-benzylidene-spiro[3′.3″]piperidi-4″-one]	good cytotoxicity
